Data set [1] in a line: Solubility versus pH profile.
For another data set, the target named is T1, rat AMY3R (Rattus norvegicus, UniProt P32214+Q9JJ73).
T1 construct: expressed in transfected cells; host or cells: BHK tk-ts 13, transient co-transfection (FuGENE 6)
T1 sequence (P32214 25-479 isoform P32214-2 limits assumed): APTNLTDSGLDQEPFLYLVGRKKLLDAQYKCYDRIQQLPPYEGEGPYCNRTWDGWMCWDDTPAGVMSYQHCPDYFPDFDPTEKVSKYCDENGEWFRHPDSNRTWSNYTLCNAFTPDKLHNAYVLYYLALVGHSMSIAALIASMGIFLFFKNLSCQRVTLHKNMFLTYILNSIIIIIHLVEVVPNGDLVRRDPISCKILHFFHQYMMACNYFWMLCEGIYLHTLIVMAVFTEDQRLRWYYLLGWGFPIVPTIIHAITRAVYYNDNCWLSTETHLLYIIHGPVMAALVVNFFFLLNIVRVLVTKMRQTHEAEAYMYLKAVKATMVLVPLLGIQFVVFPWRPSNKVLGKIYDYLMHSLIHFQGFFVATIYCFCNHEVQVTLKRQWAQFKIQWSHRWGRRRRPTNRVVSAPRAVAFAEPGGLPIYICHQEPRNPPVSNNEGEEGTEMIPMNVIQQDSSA
T1 sequence (Q9JJ73 23-147 partner): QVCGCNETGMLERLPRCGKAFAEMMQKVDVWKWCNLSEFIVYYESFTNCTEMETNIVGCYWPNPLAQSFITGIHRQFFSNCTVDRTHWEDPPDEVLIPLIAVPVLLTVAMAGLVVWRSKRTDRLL
Put plainly: cAMP FlashPlate assay, rat AMY3R. The note with it: for ratio rCTR/rAMY3R: ratio of cAMP EC50 values; for EC50: cAMP (rat receptor assay). Format: cell-based.

Data set [2] is described as follows: ThT assay: fibril formation propensity and peptide recovery. Format: physicochemical. The following applies: for recovery: residual dissolved peptide after 45 h of shaking, centrifugation and 0.22 μm filtration, HPLC, relative to amount before stress; for ThT, pH 4.0 lag-time: 10 mM glycylglycine pH 4.0, 1 μM ThT. The essentials: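 Peptides at 250 μM in 10 mM glycylglycine (pH 4.0) or HEPES (pH 7.5) with 1 μM ThT, shaken at 37 °C, 960 rpm, for 45 h; ThT fluorescence (ex 444/em 485 nm) read every 20 min. Lag time is the lowest of four replicates (>45 h if none); recovery is soluble peptide by HPLC after centrifugation/filtration, relative to pre-stress.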

A short description of data set [3]: HMWP content by size-exclusion chromatography. Format: physicochemical. The following applies: covalent dimers and polymers prior to fibril formation testing, SEC, % of total absorbance area at 215 nm. The essentials: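 Amylin analogs analysed before fibril-formation testing by isocratic SEC in 0.5 M NaCl, 10 mM sodium dihydrogen phosphate, 5 mM ortho-phosphoric acid, 50% (v/v) 2-propanol. HMWP (covalent dimers/polymers) given as peak absorbance area percentage of total, assuming equal extinction coefficients for HMWP and main peak.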
In general terms: SEC sorts molecules by how far they enter the pores of the column.

The mark [4] stands for this setting: bis-tris-propane buffer, pH 6, aqueous buffer.
Setting [5] is: bis-tris-propane buffer, pH 6.5, aqueous buffer.
Setting [6] is: bis-tris-propane buffer, pH 7, aqueous buffer.
The mark [7] stands for this setting: bis-tris-propane buffer, pH 7.5, aqueous buffer.
Setting [8] is: bis-tris-propane buffer, pH 8, aqueous buffer.
Setting [9] is: lactate buffer, pH 4, aqueous buffer.
Where [10] appears, read: lactate buffer, pH 5, aqueous buffer.
Setting [11] is: Tables S12 and S14, read-out: rAMY3R pEC50 (converted).
Where [12] appears, read: transiently transfected BHK tk-ts 13 cells, FlashPlate, 30 min room temperature, 2% HSA, read-out: rAMY3R EC50.
Where [13] appears, read: 250 μM peptide, 37 °C, 960 rpm, 45 h, lowest of four replicas, average of experiments.

The source of these data is article PMC11284788, “NN1213 – A Potent, Long-Acting, and Selective Analog of Human Amylin” (Journal of Medicinal Chemistry, 2024).

By kinetic solubility is commonly meant the concentration staying in solution when a stock, usually in DMSO, is diluted into the medium.

In brackets after ≈: the same amount, converted by molar mass. Where two headings read alike, the source gives them in different places. Numbered stars: 1 amine (or outer) side, 2 acyl side, 3 side chain; on linkers, the order of the positions; unused ones are H or OH. Bridge positions count the residues as written; N and C are the ends. Side chains are listed from the residue outwards. Peptide text beside a SMILES is read from it. * marks the point of attachment. C20 diacid = O=C(O)CCCCCCCCCCCCCCCCCCC(=O)*; γGlu = O=C(O)[C@H](CCC(=O)[*:2])N[*:1] Bounds are passed on as bounds.

Regarding `CC[C@H](C)[C@H](NC(=O)[C@H](C)NC(=O)CNC(=O)[C@H](Cc1ccccc1)NC(=O)[C@H](CC(N)=O)NC(=O)[C@@H]1CCCN1C(=O)[C@H](CO)NC(=O)[C@H](CO)NC(=O)[C@H](Cc1c[nH]cn1)NC(=O)[C@H](CCCNC(=N)N)NC(=O)[C@H](CC(C)C)NC(=O)[C@H](Cc1ccccc1)NC(=O)[C@H](CC(=O)O)NC(=O)[C@H](C)NC(=O)[C@H](CC(C)C)NC(=O)[C@H](CCCNC(=N)N)NC(=O)[C@H](CCC(N)=O)NC(=O)[C@@H](NC(=O)[C@H](C)NC(=O)[C@@H]1CSSC[C@H](NC(=O)[C@@H](N)CCCCNC(=O)CC[C@H](NC(=O)CC[C@H](NC(=O)CCCCCCCCCCCCCCCCCCC(=O)O)C(=O)O)C(=O)O)C(=O)N[C@@H](CC(N)=O)C(=O)N[C@@H]([C@@H](C)O)C(=O)N[C@@H](C)C(=O)N[C@@H]([C@@H](C)O)C(=O)N1)[C@@H](C)O)C(=O)N1CCC[C@H]1C(=O)N[C@@H](CO)C(=O)N[C@@H](CO)C(=O)N[C@H](C(=O)N[C@@H](CC(N)=O)C(=O)N[C@H](C(=O)NCC(=O)N[C@@H](CO)C(=O)N[C@@H](CC(=O)O)C(=O)N[C@H](C(=O)N[C@@H](Cc1ccc(O)cc1)C(N)=O)[C@@H](C)O)C(C)C)[C@@H](C)O` [Peptide 6] (H-K([γGlu-γGlu-C20 diacid])CNTATCATQRLADFLRHSSPNFGAIPSSTNVGSDTY-NH2; disulfide 2-7), the kinetic solubility in data set [1] (setting [4]) was not below 200 µM; in data set [1] (setting [5]) it was 190 µM (≈ 857 µg/mL); in data set [1] (setting [6]) it was not below 200 µM; in data set [1] (setting [7]), not below 200 µM; in data set [1] (setting [8]), not below 200 µM; in data set [1] (setting [9]), not below 200 µM. In data set [1] (setting [10]), this compound showed a solubility (kinetic) not below 200 µM. For the same compound, the “ratio rCTR/rAMY3R” value on rat AMY3R was 1338. Further, the “ThT, pH 7.5 lag-time” value in data set [2] (250 μM peptide, 10 mM HEPES pH 7.5, 1 μM ThT, 37 °C, 960 rpm, 45 h, lowest of four replicas, average of experiments) is more than 45 h. The recovery in data set [2] (pH 7.5) is recorded as 100%. The compound also came in with an HMWP in data set [3] (analogs 1–9 (pH 7.5 series)) of 2.5%.
Consider `CC[C@H](C)[C@H](NC(=O)[C@H](C)NC(=O)CNC(=O)[C@H](Cc1ccccc1)NC(=O)[C@H](CC(N)=O)NC(=O)[C@@H]1CCCN1C(=O)[C@H](CO)NC(=O)[C@H](CO)NC(=O)[C@H](Cc1c[nH]cn1)NC(=O)[C@H](CCCNC(=N)N)NC(=O)[C@H](CC(C)C)NC(=O)[C@H](Cc1ccccc1)NC(=O)[C@H](CC(=O)O)NC(=O)[C@H](C)NC(=O)[C@H](CC(C)C)NC(=O)[C@H](CCCNC(=N)N)NC(=O)[C@H](CCC(N)=O)NC(=O)[C@@H](NC(=O)[C@H](C)NC(=O)[C@@H]1CSSC[C@H](NC(=O)[C@@H](N)CCCCNC(=O)CC[C@H](NC(=O)CC[C@H](NC(=O)CCCCCCCCCCCCCCCCCCC(=O)O)C(=O)O)C(=O)O)C(=O)N[C@@H](CC(N)=O)C(=O)N[C@@H]([C@@H](C)O)C(=O)N[C@@H](C)C(=O)N[C@@H]([C@@H](C)O)C(=O)N1)[C@@H](C)O)C(=O)N1CCC[C@H]1C(=O)N[C@@H](CO)C(=O)N[C@@H](CO)C(=O)N[C@H](C(=O)N[C@@H](CC(N)=O)C(=O)N[C@H](C(=O)NCC(=O)N[C@@H](CO)C(=O)N[C@@H](CCCNC(=N)N)C(=O)N[C@H](C(=O)N[C@@H](Cc1ccc(O)cc1)C(N)=O)[C@@H](C)O)C(C)C)[C@@H](C)O` [NN1213], for which the kinetic solubility was not below 200 µM in data set [1] (setting [4]); not below 200 µM in data set [1] (setting [5]); 155 µM (≈ 706 µg/mL) in data set [1] (setting [6]); 106 µM (≈ 483 µg/mL) in data set [1] (setting [7]); 110 µM (≈ 501 µg/mL) in data set [1] (setting [8]); not below 200 µM in data set [1] (setting [9]). In addition, in data set [1] (setting [10]), the kinetic solubility is not below 200 µM. Further, the “ratio rCTR/rAMY3R” value at rat AMY3R was 391. Moreover, the “ThT, pH 4.0 lag-time” value in data set [2] (250 μM peptide, 37 °C, 960 rpm, 45 h, lowest of four replicas, average of experiments, listed as 21) worked out at 42 h. In data set [2] (pH 4.0), the recovery is on record as 96%. In data set [3] (analogs 10–21 (pH 4.0 series)), this compound had an HMWP of 0.9%.
For the compound `CC[C@H](C)[C@H](NC(=O)[C@H](C)NC(=O)CNC(=O)[C@H](Cc1ccccc1)NC(=O)[C@H](CC(N)=O)NC(=O)[C@@H]1CCCN1C(=O)[C@H](CO)NC(=O)[C@H](CO)NC(=O)[C@H](Cc1c[nH]cn1)NC(=O)[C@H](CCCNC(=N)N)NC(=O)[C@H](CC(C)C)NC(=O)[C@H](Cc1ccccc1)NC(=O)[C@H](CC(N)=O)NC(=O)[C@H](C)NC(=O)[C@H](CC(C)C)NC(=O)[C@H](CCCNC(=N)N)NC(=O)[C@H](CCC(N)=O)NC(=O)[C@@H](NC(=O)[C@H](C)NC(=O)[C@@H]1CSSC[C@H](NC(=O)[C@H](CCCCN)NC(=O)CC[C@H](NC(=O)CCCCCCCCCCCCCCCCCCC(=O)O)C(=O)O)C(=O)N[C@@H](CC(N)=O)C(=O)N[C@@H]([C@@H](C)O)C(=O)N[C@@H](C)C(=O)N[C@@H]([C@@H](C)O)C(=O)N1)[C@@H](C)O)C(=O)N1CCC[C@H]1C(=O)N[C@@H](CO)C(=O)N[C@@H](CO)C(=O)N[C@H](C(=O)N1CCC[C@H]1C(=O)N[C@H](C(=O)NCC(=O)N[C@@H](CO)C(=O)N[C@@H](CCC(=O)O)C(=O)N[C@H](C(=O)N[C@@H](Cc1ccc(O)cc1)C(N)=O)[C@@H](C)O)C(C)C)[C@@H](C)O` [Peptide 11] ({C20 diacid-γGlu}-KCNTATCATQRLANFLRHSSPNFGAIPSSTPVGSETY-NH2; disulfide 2-7), the solubility (kinetic) in data set [1] (setting [4]), in data set [1] (setting [5]), in data set [1] (setting [6]), in data set [1] (setting [7]), in data set [1] (setting [8]) and in data set [1] (setting [9]) was not below 200 µM in each case. This compound also gave a solubility (kinetic) in data set [1] (setting [10]) not below 200 µM. Besides, the EC50 on rat AMY3R (setting [11]) and at rat AMY3R (setting [12]) was 1.29 nM in each case. For the same compound, at rat AMY3R, the “ratio rCTR/rAMY3R” value stood at 13. In addition, the “ThT, pH 4.0 lag-time” value in data set [2] (setting [13]) is reported as 40 h. In addition, the recovery in data set [2] (pH 4.0) was determined as 74%. Besides, the HMWP in data set [3] (analogs 10–21 (pH 4.0 series)) stood at 2.6%.
With `CC[C@H](C)[C@H](NC(=O)[C@H](C)NC(=O)CNC(=O)[C@H](Cc1ccccc1)NC(=O)[C@H](CC(N)=O)NC(=O)[C@@H]1CCCN1C(=O)[C@H](CO)NC(=O)[C@H](CO)NC(=O)[C@H](Cc1c[nH]cn1)NC(=O)[C@H](CCCNC(=N)N)NC(=O)[C@H](CC(C)C)NC(=O)[C@H](Cc1ccccc1)NC(=O)[C@H](CC(N)=O)NC(=O)[C@H](C)NC(=O)[C@H](CC(C)C)NC(=O)[C@H](CCCNC(=N)N)NC(=O)[C@H](CCC(N)=O)NC(=O)[C@@H](NC(=O)[C@H](C)NC(=O)[C@@H]1CSSC[C@H](NC(=O)[C@@H](N)CCCCNC(=O)CC[C@H](NC(=O)CCCCCCCCCCCCCCCCCCC(=O)O)C(=O)O)C(=O)N[C@@H](CC(N)=O)C(=O)N[C@@H]([C@@H](C)O)C(=O)N[C@@H](C)C(=O)N[C@@H]([C@@H](C)O)C(=O)N1)[C@@H](C)O)C(=O)N1CCC[C@H]1C(=O)N[C@@H](CO)C(=O)N[C@@H](CO)C(=O)N[C@H](C(=O)N[C@@H](CC(N)=O)C(=O)N[C@H](C(=O)NCC(=O)N[C@@H](CO)C(=O)N[C@@H](CCCCN)C(=O)N[C@H](C(=O)N[C@@H](Cc1ccc(O)cc1)C(N)=O)[C@@H](C)O)C(C)C)[C@@H](C)O` [Peptide 14], the kinetic solubility in data set [1] (setting [4]), in data set [1] (setting [5]), in data set [1] (setting [6]), in data set [1] (setting [7]), in data set [1] (setting [8]) and in data set [1] (setting [9]) was not below 200 µM throughout. Moreover, the solubility (kinetic) in data set [1] (setting [10]) was not below 200 µM. Further, the values for the EC50 on rat AMY3R (setting [11]) and on rat AMY3R (setting [12]) were 0.759 nM and 0.754 nM, respectively. Further, the “ratio rCTR/rAMY3R” value on rat AMY3R was determined as 49. Moreover, the “ThT, pH 4.0 lag-time” value in data set [2] (setting [13]) is on record as more than 45 h. The recovery in data set [2] (pH 4.0) was found to be 100%. The compound also showed an HMWP in data set [3] (analogs 10–21 (pH 4.0 series)) of 3.0%.
